This note sets out measurements from patent US20250120964A1, “USE OF NOVEL MOLECULAR GLUE” (ASTROGEN, INC., priority 2023, published 2025).

SMILES strings stand for the structures. pIC50: −log10 of the molar value.

Test [1] has as its system U87 cells. Put plainly: Western blotting of gamma-H2AX and cleaved PARP. In kind it is cell-based. How it is done: The following experiments were carried out to check whether AST-DT-218 induces DNA fragmentation and apoptosis. First, U87 cells were cultured, the cells were separated using Trypsin-EDTA when the cells grew sufficiently, the cells were plated and distributed uniformly on a 12-well plate, and the cells were treated with AST-DT-218 after being attached. Subsequently, the cells were washed with PBS, proteins were extracted using a cell lysis buffer, and the cell extract was centrifugated to collect the supernatant. Then, protein samples having the same concentration were loaded onto an SDS-PAGE gel and subjected to electrophoresis, and the proteins were transferred to a PVDF membrane. After blocking the membrane with 5% skim milk (or BSA), each of the antibodies against γ-H2AX (DNA damage marker), cleaved PARP (apoptosis marker), and beta-actin was treated at 4° C. for 16 hours. The Western blotting results were analyzed to evaluate the expression levels of gamma-H2AX and cleaved PARP. Beta-actin was used as a loading control to check the consistency of the protein loading.
In general terms: Immunoblotting shows a protein as a band on a membrane.

The test system of test [2] is U373 glioblastoma-derived brain cancer cell line. As to the kind of experiment: Dose response curve (DRC), cell survival, U373. In kind it is cell-based. Conditions: Homo sapiens, U373 MG; Glioblastoma U373, 48 hours, highest concentration 10 μM; read-out: IC50 of AST-DT-218, U373. How it is done: (§1) The DRC was created in order to check whether AST-DT-218 is effective in the cell death in the brain cancer. First, glioblastoma-derived brain cancer cell lines (U87 and U373) were cultured in the respective flasks to prepare cells that had reached the logarithmic growth stage. Then, the cells were washed with PBS, harvested with trypsin, centrifuged to adjust the cell density, and then resuspended in a suitable culture medium, and the cells were dispensed into a 96-well plate. Cells were cultured until they were attached to the plate and stabilized, AST-DT-218 and a control group (lenalidomide, pomalidomide) were prepared and diluted to a variety of concentrations (½ dilution from the highest concentration of 10 μM, 10-point). The cells in the well of the plate were treated for 48 hours with each compound at individual concentrations, and the cells were cultured to react with the compound. After the culture was completed, the number of cells was measured through the nuclear staining of the cells to evaluate the cell survival rate. The cell survival rate at each concentration was measured to collect data. Then, the DRC was created (FIG. 6 and FIG. 7), and IC50 was calculated (Table 3).

Test [3] has as its system U373 brain cancer cell line. Put plainly: In vitro cell survival assay (nuclear staining), U373. In kind it is cell-based. As to conditions: Homo sapiens, U373 MG; U373, 48 hours treatment, cell number by nuclear staining. How it is done:
(§2) An in vitro experiment was carried out to check whether the compound (AST-DT-218) prepared in Example 2 was effective in the cell death in the brain cancer. First, brain cancer cell lines (U87, U373, and SK-N-SH) were cultured in the respective flasks to prepare cells that had reached the logarithmic growth stage. Then, the cells were washed with PBS, harvested with trypsin, centrifuged to adjust the cell density, and then resuspended in a suitable culture medium, and the cells were dispensed into a 96-well plate. The culture was carried out until the cells were attached to the plate and stabilized. AST-DT-218 and temozolomide, a conventional therapeutic agent for glioblastoma, were prepared and diluted at various concentrations (½ dilution from the highest concentration of 50 μM, 10-point). The cells in the well of the plate were treated for 48 hours with each compound at individual concentrations, and the cells were cultured to react with the compound. After the culture was completed, the number of cells was measured through the nuclear staining of the cells to evaluate the cell survival rate (FIG. 1), and IC50 was calculated (Table 2).

The test system of test [4] is U87 cells. Put plainly: Measurement of sub G1 population (flow cytometry). In kind it is cell-based. Conditions: 48 hours, 0.5 μM and 1 μM. The protocol: The sub G1 population was measured to check whether AST-DT-218 induces DNA fragmentation and apoptosis as in Experimental Example 3-1. […] The value of the sub G1 population of cells was measured using a flow cytometry apparatus (FIG. 5).
A general note: A flow cytometer gives signals particle by particle.

In test [5] the test system is U87 cells. Put plainly: Propidium iodide (PI) apoptosis assay. Conditions: flow cytometry. In kind it is cell-based. The protocol: A PI apoptosis assay was carried out to check whether AST-DT-218 induces DNA fragmentation and apoptosis as in Experimental Example 3-1. A PI detection kit was prepared, propidium iodide (PI) was added to the U87 cells that had been treated with AST-DT-218, and a reaction was allowed to proceed at room temperature in a dark room for 10 minutes. Then, PI fluorescence was measured using a flow cytometry apparatus (FIG. 4).

Test [6] deals with U87 brain cancer cell line. Put plainly: In vitro cell survival assay (nuclear staining), U87. In kind it is cell-based. Conditions: for pIC50: U87, 48 hours treatment, cell number by nuclear staining. How it is done: as §2
Test [7] deals with SK-N-SH brain cancer cell line. As to the kind of experiment: In vitro cell survival assay (nuclear staining), SK-N-SH. In kind it is cell-based. As to conditions: Homo sapiens, 48 hours treatment, cell number by nuclear staining. The protocol: as §2
For test [8], the system named is U87 glioblastoma-derived brain cancer cell line. As to the kind of experiment: Dose response curve (DRC), cell survival, U87. In kind it is cell-based. The protocol:
as §1

Test [9] relates to U87 cells. As to the kind of experiment: Colony-formation assay. As to conditions: cultured about two weeks, crystal violet. In kind it is cell-based. The protocol:
U87 cells, which are a brain cancer cell line, were cultured, the cells were separated using Trypsin-EDTA when the cells grew sufficiently, the cells were distributed uniformly on a 12-well plate, and the cells were treated with AST-DT-218 in each well after being attached. Then, the cells were cultured for about two weeks in an environment of 37° C. and about 5% CO2. When the cultivation was completed, the cells were fixed. Then, the colonies were stained with a crystal violet solution, and after the staining, the colonies were washed with PBS to remove background staining. A microscope was used to observe the colonies, and the number and size of the colonies were measured and quantified (FIG. 2).

In test [10] the test system is 83NS (GSC cell line derived from a GBM patient) orthotopic glioblastoma model. Put plainly: In vivo orthotopic glioblastoma xenograft model, survival. Conditions: mice, oral daily 50 mg/kg for 4 weeks, 83NS orthotopic model. How it is done: An in vivo experiment was carried out using a xenograft model. Specifically, 83NS (GSC cell line derived from a GBM patient) was used to construct an orthotopic glioblastoma model in such a way that 1×10^4 cells were injected into the brain of each of mice (n=16) at a volume of 3 μl. Thereafter, a vehicle was administered to mice (n=8), and AST-DT-218 was orally administered daily to the remaining mice (n=8) at a concentration of 50 mg/kg for 4 weeks, […]. On the other hand, the drug to be administered was changed to AST-DT-135, and the same experiment was carried out.

For orientation: pIC50 means the negative decadic logarithm of the IC50, by convention in mol/L. With `COc1ccc([C@@H](C)Nc2cccc3c2C(=O)N(C2CCC(=O)NC2=O)C3=O)cc1` (stereo partly drawn) [AST-DT-218, 2-(2,6-dioxopiperidin-3-yl)-4-(((R)-1-(4-methoxyphenyl)ethyl)amino)isoindoline-1,3-dione], in the test with U87 cells [1], the “DNA fragmentation and apoptosis (expression of gamma-H2AX and cleaved PARP)” value was “induced DNA fragmentation and apoptosis”. The pIC50 is 5.91 in test [2]; 6.15 in [3]; 5.47 in [6]; 6.62 in [7]; 5.47 in test [8] (Glioblastoma U87, 48 hours, highest concentration 10 μM, read-out: IC50 of AST-DT-218, U87). Further, the “value of the sub G1 population” value in the test with U87 cells [4] is reported as “increased”. Moreover, the “DNA fragmentation and apoptosis (PI fluorescence)” value in the test on U87 cells [5] was “induced DNA fragmentation and apoptosis”. In addition, the “cell death efficacy compared with temozolomide” value in test [6] (brain cancer cell lines U87, U373, SK-N-SH, summary of Table 2) was “efficacy superior to temozolomide”. In [8] (U87 and U373, DRC), the “cell death of brain cancer cells compared with lenalidomide and pomalidomide” value is “effective in the cell death of the brain cancer cells”. In addition, the formation of colonies entry with U87 cells [9] is on record as “significantly reduced the formation of colonies”. Besides, the “survival rate (Kaplan-Meier analysis) versus vehicle” value in test [10] is on record as “significantly increased survival rate”.
As to `Cn1nnc2c(C(N)=O)ncn2c1=O` [Temozolomide, temozolomide, reference compound], the negative-log IC50 (pIC50) is 3.54 in [6] and 4.61 in [7].
For `CCC[C@H](C)Nc1cccc2c1C(=O)N(C1CCC(=O)NC1=O)C2=O` (stereo partly drawn) [AST-DT-135, 2-(2,6-dioxopiperidin-3-yl)-4-(((S)-pentan-2-yl)amino)isoindoline-1,3-dione], in [10], the “survival rate (Kaplan-Meier analysis) versus vehicle” value was “significantly increased survival rate”.
